Source: patent publication US8036738B2, “Iontophoretic transdermal drug delivery system based on conductive polyaniline membrane” (priority 2006, dated 2011)
Structures can show the parent of a compound that is named as a salt. Where two headings read alike, the source gives them in different places. Values belong to the compound of their own block, whether it stands above or below them.

How the values were obtained:
[1] = Text: To study the iontophoretic property of the PANi membranes, standard Ag|AgCl electrode was used.
[2] = Release through PANi membrane in Franz diffusion cell, no iontophoresis
[3] = remark: listed apart in the source
Text: For the permeation study of PANi membrane based on aqueous-organic partitioning system, doxycycline HCl suspension in light mineral oil was used as the donor solution so that its permeation results would be compared with those from a hydrophilized polyvinylidene fluoride (PVDF) membrane in a general way.

[4] = Iontophoretic release through mouse skin with and without PANi membrane; type: in vitro ADME; settings: PANi membrane and mouse skin together, iontophoresis, aqueous donor without chemical enhancer
[5] = as above; type: in vitro ADME; settings: 0.3 mA/cm^2, EtOH:water 2:1 with 5% linoleic acid
Method: Skin membranes: Male hairless mice, strain SKH1, 8 weeks old, were supplied by Charles River Laboratories (Wilmington, Mass.). Mice were euthanized by carbon dioxide asphyxiation. Their skins were excised and kept at −30° C. until used.
In the case of skin membranes, the plastic bags containing the mouse skins were first taken out of the freezer and put into a beaker filled with room temperature water until they were defrosted. The skin samples were then removed from the plastic bags and cleaned of adhering fat deposits. They were then cut into small pieces of appropriate size and carefully mounted on top of the diffusion cells and left to equilibrate for 1 hour.
[formula] […] Results and Discussion
Three sets of iontophoretic experiments were carried out. In the first set, as a control test, traditional Ag|AgCl electrodes were used for the mouse skin only without the PANi membrane. In the other two sets, with the PANi membrane and the mouse skin together, either PANi|AgCl configuration or the Ag|AgCl configuration as electrodes was tested.
Therefore, instead of using a simple aqueous solution, 5% linoleic acid was added to the doxycycline HCl solution consisting of ethanol and water (EtOH: water=2:1, v/v). The reason for using ethanol was to increase the solubility of linoleic acid in the water.

[6] = PVDF membrane, aqueous-organic partitioning system, ref [9], cited from earlier work
[7] = PANi + skin, Ag|AgCl electrodes
[8] = PANi + skin, PANi|AgCl electrodes

Structure (SMILES): Cn1c(=O)c2c(ncn2C)n(C)c1=O [Caffeine, caffeine]
increase in flux vis-a-vis Table 1 [1]: about 30% | release flux rate [1]: 305±79 μg/cm^2-hr | Q24 (24 hours accumulation in the receptor part) ([2]; PANi membrane only): 573 ± 246 μg/cm^2 | Permeability ([2]; PANi membrane only, aqueous donor (about 200 mg/10 ml caffeine, doxycycline HCl; about 400 mg/10 ml lidocaine HCl)): 3.33 ± 2.5 ×10⁻⁶ cm/s | Flux ([2]; PANi membrane only, aqueous donor, steady state): 240 ± 177 μg/cm^2 hr | Flux ([2]; caffeine donor concentration 5 mg/ml, PANi membrane): 66.6 μg/cm^2 h | Flux ([2]; caffeine donor concentration 10 mg/ml, PANi membrane): 136.2 μg/cm^2 h

Experimental flux [1]: 793 ± 111 μg/cm^2 hr | amount a skin patch can deliver [1]: about 0.8 mg | change of flux versus passive release (Table 1), in words [1]: increased more than ten times | release flux rate [1]: 793±111 μg/cm^2-hr | Flux [3]: 31 ± 18 μg/cm^2 hr | Permeability [3]: 0.83 ± 0.56 ×10⁻⁶ cm/s | Q [3]: 80 ± 46 μg/cm^2 | release, in words [4]: no release was achieved | release, in words ([5]; PANi + skin, Ag|AgCl electrode set): no release | Flux [5, 7]: 0 μg/cm^2 hr | Q24 [5, 7]: 0 μg/cm^2 | Flux [5, 8]: 94.4 ± 81.2 μg/cm^2 hr | Permeability [5, 8]: 1.56 ± 1.33 ×10⁻⁶ cm/s | Q24 [5, 8]: 2760 ± 3980 μg/cm^2 | Flux ([5]; Skin only, Ag|AgCl electrodes): 48.5 ± 8.5 μg/cm^2 hr | Permeability ([5]; Skin only, Ag|AgCl electrodes): 1.06 ± 0.186 ×10⁻⁶ cm/s | Q24 ([5]; Skin only, Ag|AgCl electrodes): 1020 ± 642 μg/cm^2
Structure (SMILES): C[C@H]1c2cccc(O)c2C(=O)C2=C(O)[C@]3(O)C(=O)C(C(N)=O)=C(O)[C@@H](N(C)C)[C@@H]3[C@@H](O)[C@@H]21.Cl [Doxycycline HCl, doxycycline hydrochloride]
Q ([6]; 24 hr): 1440 ± 240 μg/cm^2 | Flux [6]: 146 ± 27 μg/cm^2 hr | Permeability [6]: 8.3 ± 2.8 ×10⁻⁶ cm/s

Structure (SMILES): CCN(CC)CC(=O)Nc1c(C)cccc1C [Lidocaine HCl, lidocaine hydrochloride]
Experimental flux [1]: 411 ± 144 μg/cm^2 hr | change of flux versus passive release (Table 1), in words [1]: small decrease in the flux | release flux rate [1]: 411±144 μg/cm^2-hr | Q24 (24 hours accumulation in the receptor part) ([2]; PANi membrane only): 3330 ± 1760 μg/cm^2
